The values below come from publication PMC12373846, “Hemoglobin as a pseudoperoxidase and drug target for oxidative stress-related diseases” (Signal Transduction and Targeted Therapy, 2025).

Each structure is given as a SMILES string.

One data set concerns C57BL/6J mice. The data set can be described thus: Arterial blood P50 and Hb concentration. The format is in vivo, mouse. The settings on record: 0.1, 1 or 10 mg/kg, 24 h. The method, then: The mice were placed in a supine position to expose the thoracic area. The mice were anesthetized with 2.5% sevoflurane and placed in the supine position. Mechanical ventilation was provided via a custom-made face mask connected to a ventilator (Ventstar small animal ventilator R415, RWD) set to deliver room air (FiO2 = 0.21), with a respiratory rate of 180 breaths per min and a tidal volume of 10 μl/g body weight. Without a surgical incision, a 1 ml syringe was directly inserted into the heart to collect bright red arterial blood. Care was taken to avoid venous sampling, and blood was passively drawn into the syringe under physiological arterial pressure. The collected arterial blood was immediately analyzed via an i-STAT® 1 Analyzer (Abbott) with CG8+ cartridges to measure pO2 (mmHg), SO2 (%), and hemoglobin concentrations (g/dL). P₅₀ values were calculated via the following equation: P50=pO2×1−SO2/SO2^1/n, n=2.711

The next data set relates to fGiD mice. Description: Immunohistochemistry of hippocampal CA1, fGiD mice. The format is in vivo, mouse. The following applies: fGiD+KDS, 3 mg/kg/day i.p. 16 days, Fig. 4e.
For a further data set, the system named is SOD1^G93A mice. The data set can be described thus: Immunohistochemistry of ventral spinal cord, SOD1^G93A mice. The format is in vivo, mouse. The settings on record: SOD1+KDS. The method, then:
SOD1^G93A mice (B6SJL-Tg(SOD1*G93A)1Gur/J) were purchased from Jackson Laboratory (strain number 002726) and used in the ALS mouse model. The mice were divided into four groups: Control, SOD1, and KDS12025 (1 and 10 mg/kg/day). Starting at 10 weeks of age, KDS12025 was administered via ad libitum drinking water at doses of 1 mg/kg/day and 10 mg/kg/day. The control and SOD1 groups received standard drinking water. Motor function was evaluated weekly via the rotarod performance test, and the ratio of running time was normalized to that of littermate controls to assess motor coordination and endurance over time. Survival of the mice was monitored for up to 24 weeks, and median survival times were calculated for each group.
The mice were deeply anesthetized with 2% isoflurane and positioned on the operating table. […] A series of fluorescence images were obtained with an LSM900 (Zeiss, Germany) confocal microscope or Lattice SIM Elyra 7 (Zeiss, Germany). […] This analysis quantified the intersections of GFAP-labeled processes within each circle, calculating the ramification index and ending radius, enabling the evaluation of astrocytic hypertrophy and morphological changes, as previously described.[78] In the focal GiD mouse model, NeuN-positive CA1 pyramidal neurons were quantified within a 50 × 50 μm^2 region via ImageJ to determine the number of CA1 pyramidal neurons.

The target in the next data set is T1, ABL1-nonphosphorylated (Homo sapiens, UniProt P00519).
T1 construct: purchased DiscoverX KINOMEscan scanEDGE; Eurofins Cerep SafetyScreen87
T1 sequence (P00519 whole entry): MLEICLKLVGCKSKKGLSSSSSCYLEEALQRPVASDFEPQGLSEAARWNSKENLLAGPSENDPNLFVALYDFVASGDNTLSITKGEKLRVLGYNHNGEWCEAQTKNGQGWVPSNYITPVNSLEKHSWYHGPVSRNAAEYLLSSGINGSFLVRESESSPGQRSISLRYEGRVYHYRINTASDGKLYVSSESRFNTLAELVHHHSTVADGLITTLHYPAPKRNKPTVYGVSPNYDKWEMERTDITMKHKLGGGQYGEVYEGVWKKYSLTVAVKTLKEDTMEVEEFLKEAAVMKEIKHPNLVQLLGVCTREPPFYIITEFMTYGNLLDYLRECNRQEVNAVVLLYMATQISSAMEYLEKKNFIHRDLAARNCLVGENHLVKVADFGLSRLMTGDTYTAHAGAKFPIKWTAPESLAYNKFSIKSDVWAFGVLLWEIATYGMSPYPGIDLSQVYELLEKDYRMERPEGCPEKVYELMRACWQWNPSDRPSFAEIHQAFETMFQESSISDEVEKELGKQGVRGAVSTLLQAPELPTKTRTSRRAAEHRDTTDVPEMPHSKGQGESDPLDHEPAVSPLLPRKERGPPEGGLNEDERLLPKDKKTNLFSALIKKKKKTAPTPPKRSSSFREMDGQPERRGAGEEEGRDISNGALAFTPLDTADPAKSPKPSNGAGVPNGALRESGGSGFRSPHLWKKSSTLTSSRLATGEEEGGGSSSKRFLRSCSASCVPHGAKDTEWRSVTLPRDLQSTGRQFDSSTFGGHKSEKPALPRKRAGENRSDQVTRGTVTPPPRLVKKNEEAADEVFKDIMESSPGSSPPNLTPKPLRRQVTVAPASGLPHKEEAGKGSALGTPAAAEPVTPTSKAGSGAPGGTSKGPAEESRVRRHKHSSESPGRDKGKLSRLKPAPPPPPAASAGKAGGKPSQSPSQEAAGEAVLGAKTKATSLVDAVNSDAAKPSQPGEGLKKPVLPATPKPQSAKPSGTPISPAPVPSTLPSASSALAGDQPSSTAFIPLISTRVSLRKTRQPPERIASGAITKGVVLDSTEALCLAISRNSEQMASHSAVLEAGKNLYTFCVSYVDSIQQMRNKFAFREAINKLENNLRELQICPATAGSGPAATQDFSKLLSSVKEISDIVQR
The data set can be described thus: KINOMEscan. The format is binding. The following applies: 10000 nM; read-out: Percent Control. The method, then:
(§1) The possibility of KDS12025 on kinase off-target, the KINOMEscan panel of scanEDGE assay was conducted in DiscoverX (CA, USA) using a site-directed competition binding with the test compounds. The assay results are given in Supplementary Table 4 and experimental information is available on the DiscoverX web page (www.discoverx.com). Moreover, the Delta SafetyScreen87 panel assay was conducted in Eurofins Discovery (Cerep, France). The assay results are given in Supplementary Table 5 and experimental information is available on the DiscoverX web page (https://www.eurofinsdiscoveryservices.com).

The next data set addresses T2, CDK2 (Homo sapiens, UniProt P24941).
T2 construct: purchased DiscoverX KINOMEscan scanEDGE; Eurofins Cerep SafetyScreen87
The data set can be described thus: KINOMEscan. The format is binding. The following applies: 10000 nM; read-out: Percent Control. The method, then:
as §1

For a further data set, the target named is T3, IGF1R (Homo sapiens, UniProt P08069).
T3 construct: purchased DiscoverX KINOMEscan scanEDGE; Eurofins Cerep SafetyScreen87
Description: KINOMEscan. The format is binding. The settings on record: 10000 nM; read-out: Percent Control. The protocol:
as §1

For another data set, the target named is T4, MET (Homo sapiens, UniProt P08581).
T4 construct: purchased DiscoverX KINOMEscan scanEDGE; Eurofins Cerep SafetyScreen87
T4 sequence (P08581 25-1390): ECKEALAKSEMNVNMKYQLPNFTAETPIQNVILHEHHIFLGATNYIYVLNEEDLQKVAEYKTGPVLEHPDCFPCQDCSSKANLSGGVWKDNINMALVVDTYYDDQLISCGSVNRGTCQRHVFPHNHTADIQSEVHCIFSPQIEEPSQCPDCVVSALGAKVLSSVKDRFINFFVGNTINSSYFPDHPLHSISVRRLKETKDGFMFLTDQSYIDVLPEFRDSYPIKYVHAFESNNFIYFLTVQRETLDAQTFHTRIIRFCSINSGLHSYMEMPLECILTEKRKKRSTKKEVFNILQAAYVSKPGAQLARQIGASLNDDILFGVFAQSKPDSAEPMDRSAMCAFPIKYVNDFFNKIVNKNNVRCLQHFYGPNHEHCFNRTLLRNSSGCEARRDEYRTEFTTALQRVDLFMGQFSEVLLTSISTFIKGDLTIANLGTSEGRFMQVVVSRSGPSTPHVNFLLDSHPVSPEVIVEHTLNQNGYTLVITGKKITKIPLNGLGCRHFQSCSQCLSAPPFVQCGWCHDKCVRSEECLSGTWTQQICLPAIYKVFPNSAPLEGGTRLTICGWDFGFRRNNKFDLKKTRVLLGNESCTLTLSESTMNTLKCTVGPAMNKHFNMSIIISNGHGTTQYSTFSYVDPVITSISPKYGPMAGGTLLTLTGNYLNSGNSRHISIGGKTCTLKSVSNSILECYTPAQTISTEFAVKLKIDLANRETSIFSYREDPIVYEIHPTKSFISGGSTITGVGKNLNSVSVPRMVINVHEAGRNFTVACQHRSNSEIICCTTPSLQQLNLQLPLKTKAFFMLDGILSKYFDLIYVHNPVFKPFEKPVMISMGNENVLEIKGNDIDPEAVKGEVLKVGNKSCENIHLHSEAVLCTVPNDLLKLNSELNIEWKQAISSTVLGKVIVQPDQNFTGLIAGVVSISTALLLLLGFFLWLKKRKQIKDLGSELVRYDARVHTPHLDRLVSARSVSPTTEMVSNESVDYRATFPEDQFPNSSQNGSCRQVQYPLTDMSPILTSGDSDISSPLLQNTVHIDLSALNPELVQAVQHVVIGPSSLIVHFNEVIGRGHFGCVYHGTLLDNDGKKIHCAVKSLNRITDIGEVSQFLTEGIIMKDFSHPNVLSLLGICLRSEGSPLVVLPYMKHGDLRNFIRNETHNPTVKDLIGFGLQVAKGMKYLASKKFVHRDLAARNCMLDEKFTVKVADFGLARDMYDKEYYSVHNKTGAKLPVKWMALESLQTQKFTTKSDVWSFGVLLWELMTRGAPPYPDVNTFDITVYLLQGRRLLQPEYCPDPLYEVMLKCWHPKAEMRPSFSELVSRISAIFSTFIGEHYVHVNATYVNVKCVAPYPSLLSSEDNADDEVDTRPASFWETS
Description: KINOMEscan. The format is binding. The following applies: 10000 nM; read-out: Percent Control. The method, then:
as §1

A further data set deals with T5, PAK1 (Homo sapiens, UniProt Q13153).
T5 construct: purchased DiscoverX KINOMEscan scanEDGE; Eurofins Cerep SafetyScreen87
T5 sequence (Q13153 whole entry): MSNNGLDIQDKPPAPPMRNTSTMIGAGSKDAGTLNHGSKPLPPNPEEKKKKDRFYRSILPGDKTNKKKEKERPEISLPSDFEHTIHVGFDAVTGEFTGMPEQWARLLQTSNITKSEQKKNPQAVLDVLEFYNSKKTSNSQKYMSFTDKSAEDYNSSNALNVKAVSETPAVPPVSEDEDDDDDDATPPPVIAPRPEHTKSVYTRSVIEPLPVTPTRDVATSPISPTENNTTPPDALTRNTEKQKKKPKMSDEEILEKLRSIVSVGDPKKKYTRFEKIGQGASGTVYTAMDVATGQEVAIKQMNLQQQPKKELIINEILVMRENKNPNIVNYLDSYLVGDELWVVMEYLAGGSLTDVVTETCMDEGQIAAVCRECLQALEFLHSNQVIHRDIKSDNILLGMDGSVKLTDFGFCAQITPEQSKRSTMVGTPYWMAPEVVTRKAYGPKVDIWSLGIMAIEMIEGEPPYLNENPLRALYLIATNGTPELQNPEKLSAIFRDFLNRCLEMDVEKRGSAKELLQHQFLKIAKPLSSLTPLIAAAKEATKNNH
Description: KINOMEscan. The format is binding. The settings on record: 10000 nM; read-out: Percent Control. The protocol: as §1

In the next data set the target is T6, PAK2 (Homo sapiens, UniProt Q13177).
T6 construct: purchased DiscoverX KINOMEscan scanEDGE; Eurofins Cerep SafetyScreen87
T6 sequence (Q13177 whole entry): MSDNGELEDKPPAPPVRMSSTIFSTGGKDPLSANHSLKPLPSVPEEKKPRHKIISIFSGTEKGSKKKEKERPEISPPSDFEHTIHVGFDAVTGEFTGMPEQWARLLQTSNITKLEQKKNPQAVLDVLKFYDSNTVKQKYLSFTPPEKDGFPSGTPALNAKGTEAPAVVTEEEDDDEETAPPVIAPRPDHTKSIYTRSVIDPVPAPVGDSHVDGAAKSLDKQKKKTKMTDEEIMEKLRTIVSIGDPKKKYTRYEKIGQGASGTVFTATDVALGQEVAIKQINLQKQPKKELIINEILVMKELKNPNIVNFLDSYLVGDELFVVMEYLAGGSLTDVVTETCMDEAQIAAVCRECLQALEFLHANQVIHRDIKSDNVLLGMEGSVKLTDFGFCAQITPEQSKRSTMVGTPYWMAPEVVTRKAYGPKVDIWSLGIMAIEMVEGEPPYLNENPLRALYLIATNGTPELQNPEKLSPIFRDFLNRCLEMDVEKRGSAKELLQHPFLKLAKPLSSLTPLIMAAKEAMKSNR
The data set can be described thus: KINOMEscan. The format is binding. The settings on record: 10000 nM; read-out: Percent Control. The method, then: as §1

The target in another data set is T7, PIM2 (Homo sapiens, UniProt Q9P1W9).
T7 construct: purchased DiscoverX KINOMEscan scanEDGE; Eurofins Cerep SafetyScreen87
T7 sequence (Q9P1W9 whole entry): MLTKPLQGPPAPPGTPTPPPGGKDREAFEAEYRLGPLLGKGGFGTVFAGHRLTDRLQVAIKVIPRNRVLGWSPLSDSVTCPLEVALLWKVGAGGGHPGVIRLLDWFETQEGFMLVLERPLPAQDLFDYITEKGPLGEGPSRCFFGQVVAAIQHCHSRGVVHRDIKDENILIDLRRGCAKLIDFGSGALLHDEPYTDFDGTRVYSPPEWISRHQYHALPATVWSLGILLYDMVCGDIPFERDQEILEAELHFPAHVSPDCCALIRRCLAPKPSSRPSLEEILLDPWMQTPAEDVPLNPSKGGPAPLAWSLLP
Description: KINOMEscan. The format is binding. The settings on record: 10000 nM; read-out: Percent Control. The protocol: as §1

The next data set has as its target T8, PLK1 (Homo sapiens, UniProt P53350).
T8 construct: purchased DiscoverX KINOMEscan scanEDGE; Eurofins Cerep SafetyScreen87
The data set can be described thus: KINOMEscan. The format is binding. The settings on record: 10000 nM; read-out: Percent Control. The method, then:
as §1

For another data set, the target named is T9, SRC (Homo sapiens, UniProt P12931).
T9 construct: purchased DiscoverX KINOMEscan scanEDGE; Eurofins Cerep SafetyScreen87
T9 sequence (P12931 whole entry): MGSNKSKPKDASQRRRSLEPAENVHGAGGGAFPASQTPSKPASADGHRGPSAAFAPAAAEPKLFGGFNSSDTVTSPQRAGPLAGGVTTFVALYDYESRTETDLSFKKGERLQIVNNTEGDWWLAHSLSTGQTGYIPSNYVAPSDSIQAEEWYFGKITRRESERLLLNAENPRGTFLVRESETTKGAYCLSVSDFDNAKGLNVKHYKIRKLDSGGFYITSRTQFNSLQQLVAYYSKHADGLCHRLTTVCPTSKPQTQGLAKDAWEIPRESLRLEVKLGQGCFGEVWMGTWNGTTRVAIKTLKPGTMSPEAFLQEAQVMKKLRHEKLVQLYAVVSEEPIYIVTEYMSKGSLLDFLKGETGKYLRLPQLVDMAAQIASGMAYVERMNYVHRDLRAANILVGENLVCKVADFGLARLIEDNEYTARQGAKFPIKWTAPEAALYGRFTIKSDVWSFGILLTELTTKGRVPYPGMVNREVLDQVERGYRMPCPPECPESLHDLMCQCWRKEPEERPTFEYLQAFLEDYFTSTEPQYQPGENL
Description: KINOMEscan. The format is binding. The settings on record: 10000 nM; read-out: Percent Control. The protocol:
as §1

T8 sequence (P53350 whole entry): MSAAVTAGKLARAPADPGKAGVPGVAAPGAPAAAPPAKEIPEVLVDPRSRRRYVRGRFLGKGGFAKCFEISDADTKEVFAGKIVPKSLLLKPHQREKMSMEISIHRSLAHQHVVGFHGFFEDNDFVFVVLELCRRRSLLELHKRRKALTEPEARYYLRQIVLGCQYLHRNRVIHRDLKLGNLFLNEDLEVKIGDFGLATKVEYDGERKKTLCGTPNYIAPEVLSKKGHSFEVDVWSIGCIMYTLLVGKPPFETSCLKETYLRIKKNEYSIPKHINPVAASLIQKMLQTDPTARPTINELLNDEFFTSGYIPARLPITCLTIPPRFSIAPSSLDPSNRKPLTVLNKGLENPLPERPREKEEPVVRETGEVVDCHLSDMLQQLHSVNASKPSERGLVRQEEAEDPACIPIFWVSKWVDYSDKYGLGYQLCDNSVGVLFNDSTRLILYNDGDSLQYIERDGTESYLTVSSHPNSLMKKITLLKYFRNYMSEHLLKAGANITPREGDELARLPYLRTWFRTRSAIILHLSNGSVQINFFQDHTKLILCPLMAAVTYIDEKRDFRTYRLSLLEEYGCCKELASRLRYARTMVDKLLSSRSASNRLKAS

For the molecule `CNc1ccc(NCCc2ccccc2OC)cc1.Cl` [KDS12025, N^1-(2-methoxyphenethyl)-N^4-methylbenzene-1,4-diamine hydrochloride salt], the “arterial oxygen affinity (P50) vs vehicle” value in the data set on C57BL/6J mice was “did not differ”. Besides, in the data set on C57BL/6J mice, the “total Hb concentration in the blood” value is listed as “unaffected”. Also, the “mean GFAP intensity in the GFAP-positive area” value with fGiD mice is “fGcon (49.2±2.7, n=9), fGiD (82.5±3.6, n=9), fGiD+KDS (59.0±2.5, n=9) One-way ANOVA with Tukey's multiple comparisons test, F(2,24) = 33.23, p < 0.001 fGcon vs. fGiD, p < 0.01; fGcon vs. fGiD+KDS, p = 0.07; fGiD vs. fGiD+KDS12025 (0.1mpk), p = 0.01”. The “Hbβ in GFAP-positive astrocytes, ventral spinal cord” value in the data set with SOD1^G93A mice (Fig. S15b) is on record as “Control (2194±76.5, n=25), SOD1 (1209±54.8, n=31), SOD1+KDS (2557±108.6, n=37) One-way ANOVA with Tukey's multiple comparisons test, F(2,90) = 65.01, p < 0.001 Control vs. SOD1, p < 0.001; Control vs. SOD1+KDS, p = 0.02; SOD1 vs. SOD1+KDS, p < 0.001”. Moreover, the “Hbβ in NeuN-positive neurons, ventral spinal cord” value in the data set with SOD1^G93A mice (Fig. S15d) is on record as “Control (1961±96.1, n=22), SOD1 (1183±89.9, n=19), SOD1+KDS (2326±85.3, n=17) One-way ANOVA with Tukey's multiple comparisons test, F(2,55) = 38.14, p < 0.001 Control vs. SOD1, p < 0.001; Control vs. SOD1+KDS, p = 0.02; SOD1 vs. SOD1+KDS, p < 0.001”. The remaining binding at 10 µM on ABL1-nonphosphorylated came to 72%; at CDK2, 92%; at IGF1R, 84%; at MET it was 82%; on PAK1, 75%; at PAK2, 94%. Also, the remaining binding at 10 µM on PIM2 came out at 64%; on PLK1, 100%; at SRC, 72%.
